Key:
[1] = molecular target: T1, ATP-binding cassette sub-family C member 2 (Rattus norvegicus, UniProt Q63120); test: TP_TRANSPORTER: biliary excretion in SD rat; format: functional, organism-based, Sprague-Dawley, Bile; conditions: in vivo
[2] = molecular target: T1, ATP-binding cassette sub-family C member 2; test: TP_TRANSPORTER: biliary excretion in EHBR rat; format: functional, organism-based, Bile; conditions: in vivo
[3] = molecular target: T2, Solute carrier organic anion transporter family member 1A1 (Rattus norvegicus, UniProt P46720); test: TP_TRANSPORTER: uptake in Oatp1-expressing COS-7 cells; format: functional, cell-based; conditions: monkey
T2 sequence (P46720 whole entry): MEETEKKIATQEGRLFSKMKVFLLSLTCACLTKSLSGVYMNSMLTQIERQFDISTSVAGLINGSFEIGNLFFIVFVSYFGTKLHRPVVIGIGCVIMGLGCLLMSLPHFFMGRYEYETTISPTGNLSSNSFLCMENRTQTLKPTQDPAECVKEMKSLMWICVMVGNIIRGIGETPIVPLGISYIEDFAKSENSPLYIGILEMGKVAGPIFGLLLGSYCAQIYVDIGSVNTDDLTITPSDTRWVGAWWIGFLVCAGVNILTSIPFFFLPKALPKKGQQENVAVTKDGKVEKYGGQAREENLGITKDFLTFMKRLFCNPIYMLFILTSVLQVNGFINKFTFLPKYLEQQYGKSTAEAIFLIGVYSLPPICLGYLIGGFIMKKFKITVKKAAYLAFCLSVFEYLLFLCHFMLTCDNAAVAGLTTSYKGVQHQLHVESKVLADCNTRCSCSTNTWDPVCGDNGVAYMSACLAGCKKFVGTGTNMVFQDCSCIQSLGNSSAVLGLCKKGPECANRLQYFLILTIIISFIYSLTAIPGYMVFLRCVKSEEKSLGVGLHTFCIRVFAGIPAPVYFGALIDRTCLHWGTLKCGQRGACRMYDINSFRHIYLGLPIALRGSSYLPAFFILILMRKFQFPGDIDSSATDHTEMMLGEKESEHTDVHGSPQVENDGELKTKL

[4] = molecular target: T3, Hepatic sodium/bile acid cotransporter (Rattus norvegicus, UniProt P26435); test: TP_TRANSPORTER: uptake in Ntcp-expressing COS-7 cells; format: functional, cell-based; conditions: monkey
T3 sequence (P26435 whole entry): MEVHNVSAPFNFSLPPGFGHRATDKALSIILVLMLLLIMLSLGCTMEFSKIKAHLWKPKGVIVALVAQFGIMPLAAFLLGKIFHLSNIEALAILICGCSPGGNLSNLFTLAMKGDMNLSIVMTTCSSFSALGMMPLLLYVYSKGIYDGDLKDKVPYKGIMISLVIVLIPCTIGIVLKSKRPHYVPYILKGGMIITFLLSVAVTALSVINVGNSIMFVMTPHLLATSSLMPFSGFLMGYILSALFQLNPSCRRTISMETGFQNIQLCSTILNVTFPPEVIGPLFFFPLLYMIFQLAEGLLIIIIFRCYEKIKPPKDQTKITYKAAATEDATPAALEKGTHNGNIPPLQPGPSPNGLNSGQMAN

T1 sequence (Q63120 whole entry): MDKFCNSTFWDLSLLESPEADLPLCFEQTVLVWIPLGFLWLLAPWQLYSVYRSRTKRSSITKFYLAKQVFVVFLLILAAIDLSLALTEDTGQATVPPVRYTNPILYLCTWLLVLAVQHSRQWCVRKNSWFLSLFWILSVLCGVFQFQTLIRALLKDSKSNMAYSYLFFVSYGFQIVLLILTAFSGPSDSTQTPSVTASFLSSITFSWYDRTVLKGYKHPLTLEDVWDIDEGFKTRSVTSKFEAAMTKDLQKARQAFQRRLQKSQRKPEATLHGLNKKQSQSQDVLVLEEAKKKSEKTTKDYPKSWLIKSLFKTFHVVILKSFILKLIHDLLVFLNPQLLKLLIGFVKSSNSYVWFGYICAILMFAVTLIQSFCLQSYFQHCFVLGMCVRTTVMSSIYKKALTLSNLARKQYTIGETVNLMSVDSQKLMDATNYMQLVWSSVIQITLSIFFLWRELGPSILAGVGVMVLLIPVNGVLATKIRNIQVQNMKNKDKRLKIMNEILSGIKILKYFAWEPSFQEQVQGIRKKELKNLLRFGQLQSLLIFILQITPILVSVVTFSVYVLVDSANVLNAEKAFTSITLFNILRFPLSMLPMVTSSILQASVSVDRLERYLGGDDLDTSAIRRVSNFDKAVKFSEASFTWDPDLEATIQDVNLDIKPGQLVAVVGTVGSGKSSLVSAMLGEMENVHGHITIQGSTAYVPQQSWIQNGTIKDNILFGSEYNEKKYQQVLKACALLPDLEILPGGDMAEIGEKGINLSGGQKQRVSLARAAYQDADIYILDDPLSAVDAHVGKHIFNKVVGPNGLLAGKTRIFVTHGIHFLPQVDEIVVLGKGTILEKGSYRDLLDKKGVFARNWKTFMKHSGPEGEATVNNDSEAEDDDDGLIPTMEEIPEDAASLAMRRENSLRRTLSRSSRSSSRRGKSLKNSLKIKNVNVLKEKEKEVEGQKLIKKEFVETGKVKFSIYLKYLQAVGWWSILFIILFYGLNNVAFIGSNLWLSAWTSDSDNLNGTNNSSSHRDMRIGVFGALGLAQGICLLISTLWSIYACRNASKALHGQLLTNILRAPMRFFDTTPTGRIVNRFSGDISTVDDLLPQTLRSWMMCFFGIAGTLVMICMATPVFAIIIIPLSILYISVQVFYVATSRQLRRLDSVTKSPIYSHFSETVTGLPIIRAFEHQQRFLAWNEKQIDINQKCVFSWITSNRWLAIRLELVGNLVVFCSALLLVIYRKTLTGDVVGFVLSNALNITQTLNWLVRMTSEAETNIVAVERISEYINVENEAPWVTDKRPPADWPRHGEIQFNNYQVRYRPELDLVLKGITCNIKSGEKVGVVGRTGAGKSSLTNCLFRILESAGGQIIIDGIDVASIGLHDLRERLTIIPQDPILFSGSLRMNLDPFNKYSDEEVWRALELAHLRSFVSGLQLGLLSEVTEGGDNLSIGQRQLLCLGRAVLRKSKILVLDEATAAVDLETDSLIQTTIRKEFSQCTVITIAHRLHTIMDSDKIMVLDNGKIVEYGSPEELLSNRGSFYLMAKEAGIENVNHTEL

| Activity [1] | Activity [2] | Activity [3] | Activity [4] | SMILES |
| --- | --- | --- | --- | --- |
| is not a substrate [-] | is not a substrate [-] | is not a substrate [-] | is not a substrate [-] | COc1ccc2c(c1)c(CC(=O)O)c(C)n2C(=O)c1ccc(Cl)cc1 [INDOMETHACIN] |
| substrate [+] | substrate [+] | – | – | COc1ccc2c(c1)c(CC(=O)O[C@@H]1O[C@H](C(=O)O)[C@@H](O)[C@H](O)[C@H]1O)c(C)n2C(=O)c1ccc(Cl)cc1 [INDOMETHACIN GLUCURONIDE] |

Source: ChEMBL document CHEMBL2073846, “Pharmacokinetic study of the hepatobiliary transport of indomethacin” (Pharm Res, 2000)
